We go through two compounds from patent US12636325B2, “Probiotic compositions for treating and preventing colorectal cancer” (The Chinese University of Hong Kong, priority 2021, dated 2026).

Experiment [1] relates to CRC cell lines (HCT116 and LoVo). As to the kind of experiment: Cell viability (MTT) assay, CRC cell lines. The class given is cell-based. Here is the method:
After culturing L. gallinarum or E. coli MG1655 for 1-2 days, the bacterial concentration in each culture medium was measured using NanoDrop spectrophotometer (NanoDrop Technologies, Wilmington, DE). BHI cultures were diluted to ensure equal concentrations of L. gallinarum and E. coli. Culture supernatants were then collected by centrifugation at 5,000 rpm for 10 minutes, followed by sterile filtration with a 0.22-μm membrane. Filtrates were collected and termed as L. gallinarum culture supernatant (LGCS) or E. coli MG1655 culture supernatant (ECCS). Bacterial culture supernatant was separated into low-molecular-weight (LMW) and high-molecular-weight (HMW) using Amicon Ultra-15 Centrifugal Filter Units with a pore size of 3 kilodalton (kDa, Millipore, Bedford, MA). After centrifugation in a swinging bucket rotor at 4,000 g for 30 minutes, cells were cultured in medium containing […] or control broth (LMW, 10%; HMW, 1%). The bacterial supernatants were heated at 100° C. for 30 minutes or treated with proteinase k (50 ug/ml; QIAGEN GmbH, Hilden, Germany). […] Cell proliferation was measured by MTT assay for 5 consecutive days. The amount of MTT formazan product was determined by measuring absorbance at a wavelength of 570 nm (OD570) with a microplate reader (Multiskan GO Microplate Spectrophotometer, Thermo Scientific, Vantaa, Finland). […]

The subject of experiment [2] is CRC cell lines, HCT116 and LoVo. In words: Apoptosis assay (Annexin V-PE / 7-AAD flow cytometry), CRC cell lines. It counts as cell-based. The conditions noted are these: FIG. 18F. As for the experimental part: Cells were plated on 6-well plates 24 hours prior to treatment, and cultured in medium containing 10% […] or control broth. CRC patient-derived organoids were cultured on 6-well plates, and 10% […] or control broth was added to Matrigel and growth medium. After treatment, cells and organoids were digested in 0.25% trypsin-EDTA (Gibco-Invitrogen Corp., Grand Island, NY) and TrypLE, respectively. For apoptosis assay, the proportion of apoptotic cells was evaluated by dual staining with Annexin V-PE and 7-Aminoactinomycin D (7-AAD) (BD Pharmingen, San Jose, CA). Combination of Annexin V-PE and 7-AAD staining distinguished early apoptotic cells (Annexin V+, 7-AAD-) and late apoptotic cells (Annexin V+, 7-AAD+). For cell cycle analysis, cells treated with 10% […] or control broth for 1 day were fixed and stained with 50 μg/ml propidium iodide (PI) (BD Pharmingen). Cell cycle of all stained cells were analyzed using […] cell sorter (BD Biosciences, San Jose, CA).

Experiment [3] deals with Apc^min/+ mice. In words: Gavage of ILA into Apc^Min/+ mice. It counts as in vivo. The conditions noted are these: gavage 20 mg/kg. As for the experimental part: Functional investigation of ILA in CRC tumorigenesis was then performed in vivo. […] Moreover, additional experiments were performed to investigate if antagonizing ILA could abrogate L. gallinarum medicated anti-cancer effect. […] Thus, ILA can contribute, at least in part, to the tumor-suppressive effect of L. gallinarum.

The target of experiment [4] is T1, aryl hydrocarbon receptor (AhR) (Homo sapiens, UniProt P35869).
T1 construct: endogenous in cells
As to the kind of experiment: Transcription of AhR after AhR antagonist. It counts as cell-based. The following applies: 100 nM.

The subject of experiment [5] is Apc^min/+ mice. In words: Intestinal tumorigenesis in Apc^Min/+ mice gavaged with L. gallinarum. It counts as in vivo. The following applies: male and female Apc^Min/+ mice with CH-223191 treatment. As for the experimental part:
[…] Apc^Min/+ mice at 5 to 6 weeks old were divided into 3 groups with or without CH-223191 treatment: (1) control; (2) E. coli MG1655; and (3) L. gallinarum. L. gallinarum and E. coli MG1655 were cultured in MRS broth (Difco Laboratories, Detroit, MN) and BHI broth, respectively. After one day, 1.0×10^8 colony-forming units (CFUs) bacteria were collected and resuspended in 100 ul PBS. Mice were gavaged once daily for 8 weeks and body weight and stool were examined weekly.
Mouse colonoscopy (Karl Storz Endoskope, Tuttlingen, Germany) was performed prior to sacrifice. The colonoscope was inserted into the anus and advanced proximally under direct visualization, facilitated by air insufflation, and representative pictures of the colon tumor from each group were recorded. After 8 weeks of gavage, mice were anaesthetized and sacrificed. Small intestines and colons of mice were longitudinally opened and rinsed with PBS. Total number of tumors in small intestine and colon were recorded. Size of each tumor was measured using previous published formula^42. All animal studies were performed in accordance with guidelines approved by the Animal Experimentation Ethics Committee of The Chinese University of Hong Kong.
To investigate the effect of L. gallinarum on colorectal tumorigenesis, Apc^Min/+ mice were first used. […]

T1 sequence (P35869 11-848): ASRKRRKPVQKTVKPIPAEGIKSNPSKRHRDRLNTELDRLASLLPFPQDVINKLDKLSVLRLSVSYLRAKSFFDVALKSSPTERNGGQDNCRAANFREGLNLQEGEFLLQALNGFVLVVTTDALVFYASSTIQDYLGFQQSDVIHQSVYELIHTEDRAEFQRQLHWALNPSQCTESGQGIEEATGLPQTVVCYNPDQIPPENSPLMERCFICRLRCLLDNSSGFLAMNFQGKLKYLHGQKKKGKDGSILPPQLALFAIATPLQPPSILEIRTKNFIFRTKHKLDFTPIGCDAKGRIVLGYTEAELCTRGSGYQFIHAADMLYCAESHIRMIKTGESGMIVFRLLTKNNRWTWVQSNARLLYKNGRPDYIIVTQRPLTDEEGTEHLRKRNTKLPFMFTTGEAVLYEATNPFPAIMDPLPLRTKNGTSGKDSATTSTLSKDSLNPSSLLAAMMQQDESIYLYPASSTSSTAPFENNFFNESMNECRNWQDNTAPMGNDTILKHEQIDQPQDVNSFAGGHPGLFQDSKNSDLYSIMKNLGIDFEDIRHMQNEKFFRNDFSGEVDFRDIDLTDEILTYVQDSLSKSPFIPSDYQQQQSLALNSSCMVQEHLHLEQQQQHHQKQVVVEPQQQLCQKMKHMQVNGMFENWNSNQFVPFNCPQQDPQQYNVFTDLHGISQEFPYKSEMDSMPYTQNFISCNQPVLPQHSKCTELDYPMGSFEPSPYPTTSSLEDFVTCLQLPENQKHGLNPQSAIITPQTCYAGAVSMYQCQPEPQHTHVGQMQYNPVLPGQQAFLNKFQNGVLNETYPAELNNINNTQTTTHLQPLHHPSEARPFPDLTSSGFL

Regarding `O=C(O)C(O)Cc1c[nH]c2ccccc12` (stereo not drawn) [ILA, indole-3-lactic acid], the “cell viability of CRC cells” value in experiment [1] (same amount of ILA as produced from L. gallinarum) is recorded as “decreased substantially”. In addition, in experiment [2], the “cell apoptosis of CRC cells” value is on record as “significantly increased”. Further, in the experiment on Apc^min/+ mice [3], the “cells with positive TUNEL staining, adjacent normal tissues” value is given as “but not in adjacent normal tissues”; the “cells with positive TUNEL staining, tumor tissues” value is “increased”; the tumor number result was “significantly reduced”; the tumor size result is reported as “significantly reduced”.
`Cc1ccccc1N=Nc1ccc(NC(=O)c2ccnn2C)c(C)c1` [CH-223191]: the “effect on CRC suppression by L. gallinarum in vitro” value in experiment [1] (CRC cells pre-treated with 100 nM for 12 hours before culture supernatant) is on record as “abolished the effect of L. gallinarum in suppressing CRC”. In addition, the “transcription of AhR” value in experiment [4] was “significantly suppressed”. Also, in the experiment on Apc^min/+ mice [5], the “effect on CRC suppression by L. gallinarum in Apc^Min/+ mice” value is “abolished the effect of L. gallinarum in suppressing CRC”.
